Broadly, the MIC is the smallest concentration in the dilution series that meets the test's criterion for growth inhibition. A word on the pIC50: it is −log10 of the IC50, conventionally taken in molar units. A word on the inhibition: it is the percentage by which the read-out fell short of the control.

Results on eight molecules are retold here after ChEMBL document CHEMBL6127079, “Design and synthesis of spiro[pyrrolidine-3,3'-quinoline]-2,2'-dione derivatives as novel antifungal agents targeting chitin synthase” (Eur J Med Chem, 2024).

pIC50: −log10 of the molar value. In brackets after ≈: the same amount, converted by molar mass.

The test system of test [1] is Aspergillus flavus. In words: Antifungal activity against Aspergillus flavus ATCC 16870 assessed as inhibition of growth incubated for 24 hrs by two-fold serial dilution method. The format is functional.
Test [2] is described as follows: Inhibition of chitin synthase extracted from Candida tropicalis ATCC 750 using UDP-GlcNAc as substrate assessed as inhibition rate by TMB based microplate analyzer relative to control.
Test [3] concerns Aspergillus fumigatus. As to the kind of experiment: Antifungal activity against Aspergillus fumigatus GIMCC 3.19 assessed as inhibition of growth incubated for 24 hrs by two-fold serial dilution method. The format is functional.
For another test, the system named is Candida tropicalis. As to the kind of experiment: Inhibition of chitin synthase extracted from Candida tropicalis ATCC 750 using UDP-GlcNAc as substrate assessed as inhibition rate at 300 ug/ml by TMB based microplate analyzer relative to control. The settings on record: dose 300.0 µg/ml.
For test [4], the system named is Cryptococcus neoformans. As to the kind of experiment: Antifungal activity against Cryptococcus neoformans ATCC 32719 assessed as inhibition of growth incubated for 24 hrs by two-fold serial dilution method. The format is functional.
Test [5] relates to Candida albicans. As to the kind of experiment: Antifungal activity against Candida albicans ATCC 76615 assessed as inhibition of growth incubated for 24 hrs by two-fold serial dilution method. It is filed as functional.
The test system of test [6] is Aspergillus fumigatus. In words: Antifungal activity against fluconazole-resistant Aspergillus fumigatus GIMCC 3.19 assessed as inhibition of fungal growth incubated for 24 to 72 hrs. The format is functional. The settings on record: time 24-72 hrs.
Test [7] has as its system Cryptococcus neoformans. As to the kind of experiment: Antifungal activity against Cryptococcus neoformans ATCC 32719 assessed as fluconazole MIC incubated for 24 hrs in presence of fluconazole by half broth dilution based checkerboard method. The format is functional. (In broth dilution the organism is exposed to a series of concentrations in liquid medium.)
Test [8] has as its system Aspergillus flavus. In words: Synergistic antifungal activity against Aspergillus flavus ATCC 16870 assessed as fractional inhibitory concentration index in presence of Polyoxin B incubated for 24 hrs by half broth dilution based checkerboard method. It is filed as functional.
Test [9] deals with Aspergillus flavus. As to the kind of experiment: Antifungal activity against Aspergillus flavus ATCC 16870 incubated for 24 hrs by half broth dilution based checkerboard method. It is filed as functional.
For test [10], the system named is Aspergillus fumigatus. In words: Synergistic antifungal activity against Aspergillus fumigatus GIMCC 3.19 assessed as fractional inhibitory concentration index in presence of fluconazole incubated for 24 hrs by half broth dilution based checkerboard method. The format is functional.
In test [11] the test system is Aspergillus flavus. In words: Antifungal activity against fluconazole-resistant Aspergillus flavus ATCC 16870 assessed as inhibition of fungal growth incubated for 24 to 72 hrs. It is filed as functional. The conditions noted are these: time 24-72 hrs.
For test [12], the system named is Aspergillus fumigatus. As to the kind of experiment: Synergistic antifungal activity against Aspergillus fumigatus GIMCC 3.19 assessed as fractional inhibitory concentration index in presence of Polyoxin B incubated for 24 hrs by half broth dilution based checkerboard method. It is filed as functional.
For test [13], the system named is Cryptococcus neoformans. In words: Synergistic antifungal activity against Cryptococcus neoformans ATCC 32719 assessed as fractional inhibitory concentration index in presence of Polyoxin B incubated for 24 hrs by half broth dilution based checkerboard method. It is filed as functional.
The test system of test [14] is Aspergillus fumigatus. In words: Antifungal activity against Aspergillus fumigatus GIMCC 3.19 incubated for 24 hrs by half broth dilution based checkerboard method. The format is functional.
Test [15] concerns Cryptococcus neoformans. In words: Antifungal activity against drug-resistant Cryptococcus neoformans ATCC 32719 assessed as inhibition of cell wall synthesis in presence of sorbitol incubated for 24 hrs. It is filed as functional.
Test [16] relates to Candida albicans. In words: Antifungal activity against Candida albicans ATCC 76615 assessed as fluconazole MIC incubated for 24 hrs in presence of fluconazole by half broth dilution based checkerboard method. The format is functional.
In test [17] the test system is Candida albicans. In words: Antifungal activity against micafungin-resistant Candida albicans ATCC 76615 assessed as inhibition of fungal growth incubated for 24 to 72 hrs. The settings on record: time 24-72 hrs. The format is functional.
Test [18] has as its system Candida albicans. As to the kind of experiment: Antifungal activity against Candida albicans ATCC 76615 assessed as Polyoxin B MIC incubated for 24 hrs in presence of fluconazole by half broth dilution based checkerboard method. It is filed as functional.
Test [19] has as its system Cryptococcus neoformans. In words: Synergistic antifungal activity against Cryptococcus neoformans ATCC 32719 assessed as fractional inhibitory concentration index in presence of fluconazole incubated for 24 hrs by half broth dilution based checkerboard method. The format is functional.
The test system of test [20] is Candida albicans. In words: Antifungal activity against fluconazole-resistant Candida albicans ATCC 76615 assessed as inhibition of fungal growth incubated for 24 to 72 hrs. It is filed as functional. The conditions noted are these: time 24-72 hrs.
Test [21] deals with Candida albicans. As to the kind of experiment: Antifungal activity against drug-resistant Candida albicans ATCC 76615 assessed as inhibition of cell wall synthesis in presence of sorbitol incubated for 24 hrs. It is filed as functional.
The test system of test [22] is Aspergillus fumigatus. In words: Antifungal activity against Aspergillus fumigatus GIMCC 3.19 assessed as fluconazole MIC incubated for 24 hrs in presence of fluconazole by half broth dilution based checkerboard method. The format is functional.
Test [23] relates to Aspergillus flavus. In words: Synergistic antifungal activity against Aspergillus flavus ATCC 16870 assessed as fractional inhibitory concentration index in presence of fluconazole incubated for 24 hrs by half broth dilution based checkerboard method. The format is functional.
The test system of test [24] is Cryptococcus neoformans. As to the kind of experiment: Antifungal activity against Cryptococcus neoformans ATCC 32719 assessed as Polyoxin B MIC incubated for 24 hrs in presence of fluconazole by half broth dilution based checkerboard method. It is filed as functional.
The test system of test [25] is Aspergillus fumigatus. As to the kind of experiment: Antifungal activity against Aspergillus fumigatus GIMCC 3.19 assessed as Polyoxin B MIC incubated for 24 hrs in presence of fluconazole by half broth dilution based checkerboard method. It is filed as functional.
In test [26] the test system is Candida albicans. As to the kind of experiment: Antifungal activity against Candida albicans ATCC 76615 incubated for 24 hrs by half broth dilution based checkerboard method. The format is functional.
The test system of test [27] is Candida albicans. As to the kind of experiment: Synergistic antifungal activity against Candida albicans ATCC 76615 assessed as fractional inhibitory concentration index in presence of fluconazole incubated for 24 hrs by half broth dilution based checkerboard method. It is filed as functional.
In test [28] the test system is Cryptococcus neoformans. In words: Antifungal activity against Cryptococcus neoformans ATCC 32719 incubated for 24 hrs by half broth dilution based checkerboard method. It is filed as functional.
Test [29] concerns Aspergillus flavus. In words: Antifungal activity against Aspergillus flavus ATCC 16870 assessed as Polyoxin B MIC incubated for 24 hrs in presence of fluconazole by half broth dilution based checkerboard method. The format is functional.
Test [30] deals with Cryptococcus neoformans. In words: Antifungal activity against fluconazole-resistant Cryptococcus neoformans ATCC 32719 assessed as inhibition of fungal growth incubated for 24 to 72 hrs. The conditions noted are these: time 24-72 hrs. The format is functional.
Test [31] concerns Candida albicans. As to the kind of experiment: Synergistic antifungal activity against Candida albicans ATCC 76615 assessed as fractional inhibitory concentration index in presence of Polyoxin B incubated for 24 hrs by half broth dilution based checkerboard method. It is filed as functional.
The test system of test [32] is Aspergillus flavus. As to the kind of experiment: Antifungal activity against Aspergillus flavus ATCC 16870 assessed as fluconazole MIC incubated for 24 hrs in presence of fluconazole by half broth dilution based checkerboard method. It is filed as functional.
In test [33] the test system is Aspergillus fumigatus. In words: Antifungal activity against drug-resistant Aspergillus fumigatus GIMCC 3.19 assessed as inhibition of cell wall synthesis in presence of sorbitol incubated for 24 hrs. The format is functional.

`O=C(/C=C/C(=O)Nc1ccc2c(c1)NC(=O)C1(CCNC1=O)C2)Nc1ccc(Cl)cc1` (racemic): the MIC in the test on Aspergillus flavus [1] was found to be 32 µg/mL (≈ 72.9 µM); with Aspergillus fumigatus [3], 32 µg/mL (≈ 72.9 µM); with Cryptococcus neoformans [4], 64 µg/mL (≈ 146 µM); in the test on Candida albicans [5] it was 32 µg/mL (≈ 72.9 µM). Also, the negative logarithm of the IC50 (pIC50) in test [2] was 3.30. In the test with Candida tropicalis, the inhibition was 56.3%.

On to `O=C(CN1CCC(C(=O)Nc2nc3ccccc3s2)CC1)Nc1ccc2c(c1)NC(=O)C1(CCNC1=O)C2` (racemic), for which the MIC in the test with Aspergillus flavus [1] turned out to be 32 µg/mL (≈ 60.1 µM); in the test with Aspergillus fumigatus [3], 32 µg/mL (≈ 60.1 µM); with Cryptococcus neoformans [4], 16 µg/mL (≈ 30 µM); with Candida albicans [5], 64 µg/mL (≈ 120 µM). Moreover, in test [2], the pIC50 was 3.42. Further, the inhibition with Candida tropicalis is 57.7%.

For the molecule `O=C(/C=C/C(=O)Nc1ccc2c(c1)NC(=O)C1(CCNC1=O)C2)Nc1ccc(Br)cc1` (racemic), the MIC in the test with Aspergillus fumigatus [6] worked out at 64 µg/mL (≈ 132 µM); in the test on Cryptococcus neoformans [7], 4 µg/mL; with Aspergillus flavus [9], 8 µg/mL; in the test with Aspergillus flavus [11], 64 µg/mL (≈ 132 µM); in the test on Aspergillus flavus [1], 16 µg/mL (≈ 33.1 µM); in the test with Aspergillus fumigatus [14] it was 8 µg/mL. In addition, the MIC in the test on Cryptococcus neoformans [15] was 256 µg/mL; with Candida albicans [16], 4 µg/mL; with Candida albicans [17] it was 32 µg/mL (≈ 66.2 µM); in the test on Candida albicans [18], 8 µg/mL; in the test with Candida albicans [20] it was 64 µg/mL (≈ 132 µM); in the test with Aspergillus fumigatus [3], 32 µg/mL (≈ 66.2 µM). Besides, the MIC in the test on Candida albicans [21] was determined as 128 µg/mL; in the test on Aspergillus fumigatus [22], 2 µg/mL; with Cryptococcus neoformans [24], 4 µg/mL; with Aspergillus fumigatus [25], 16 µg/mL; in the test on Candida albicans [26] it was 4 µg/mL; in the test on Cryptococcus neoformans [4], 16 µg/mL (≈ 33.1 µM). Further, the MIC in the test with Cryptococcus neoformans [28] turned out to be 4 µg/mL; in the test on Candida albicans [5] it was 16 µg/mL (≈ 33.1 µM); in the test on Aspergillus flavus [29], 8 µg/mL; in the test on Cryptococcus neoformans [30], 32 µg/mL (≈ 66.2 µM); in the test on Aspergillus flavus [32], 4 µg/mL; with Aspergillus fumigatus [33] it was 256 µg/mL. The “fractional inhibitory concentration index (FICI)” value is on record as 1.5 with Aspergillus flavus [8]; 0.75 with Aspergillus fumigatus [10]; 0.75 with Aspergillus fumigatus [12]; 1 in the test on Cryptococcus neoformans [13]; 1 in the test on Cryptococcus neoformans [19]; 1.5 in the test with Aspergillus flavus [23]. Further, the “fractional inhibitory concentration index (FICI)” value in the test with Candida albicans [27] and with Candida albicans [31] was 0.75 in each case. Further, the pIC50 in test [2] was 3.75. In the test on Candida tropicalis, the inhibition was found to be 72.7%.

For the molecule `CCCNC(=O)C1CCN(CC(=O)Nc2ccc3c(c2)NC(=O)C2(CCNC2=O)C3)CC1` (racemic), the MIC with Aspergillus flavus [1] was 128 µg/mL (≈ 290 µM); with Aspergillus fumigatus [3], 256 µg/mL (≈ 580 µM); with Cryptococcus neoformans [4], 512 µg/mL (≈ 1160 µM); in the test with Candida albicans [5], 128 µg/mL (≈ 290 µM). In addition, the inhibition with Candida tropicalis was 22.5%.

With `O=C(CN1CCC(C(=O)Nc2ccc(Cl)cc2)CC1)Nc1ccc2c(c1)NC(=O)C1(CCNC1=O)C2` (racemic), the MIC with Aspergillus flavus [1] was found to be 16 µg/mL (≈ 31.4 µM); in the test with Aspergillus fumigatus [3], 16 µg/mL (≈ 31.4 µM); in the test on Cryptococcus neoformans [4], 32 µg/mL (≈ 62.7 µM); in the test on Candida albicans [5], 64 µg/mL (≈ 125 µM). Moreover, in test [2], the negative-log IC50 (pIC50) is 3.78. Moreover, the inhibition in the test with Candida tropicalis was 41.3%.

Turning to `O=C(CN1CCC(C(=O)Nc2ccccc2)CC1)Nc1ccc2c(c1)NC(=O)C1(CCNC1=O)C2` (racemic), the MIC in the test on Aspergillus flavus [1] amounted to 32 µg/mL (≈ 67.3 µM); with Aspergillus fumigatus [3], 128 µg/mL (≈ 269 µM); with Cryptococcus neoformans [4] it was 64 µg/mL (≈ 135 µM); in the test on Candida albicans [5], 64 µg/mL (≈ 135 µM). For the same molecule, in the test with Candida tropicalis, the inhibition was determined as 35.8%.

Consider `O=C(/C=C/C(=O)Nc1ccc2c(c1)NC(=O)C1(CCNC1=O)C2)Nc1ccc(F)cc1` (racemic), for which the minimum inhibitory concentration (MIC) worked out at 32 µg/mL (≈ 75.8 µM) in the test on Aspergillus flavus [1], 64 µg/mL (≈ 152 µM) in the test with Aspergillus fumigatus [3], 32 µg/mL (≈ 75.8 µM) in the test on Cryptococcus neoformans [4] and 128 µg/mL (≈ 303 µM) with Candida albicans [5]. Besides, in the test on Candida tropicalis, the inhibition is 46.8%.

As for `COc1ccc(NC(=O)C2CCN(CC(=O)Nc3ccc4c(c3)NC(=O)C3(CCNC3=O)C4)CC2)cc1` (racemic), the MIC was determined as 32 µg/mL (≈ 63.3 µM) in the test with Aspergillus flavus [1], 64 µg/mL (≈ 127 µM) with Aspergillus fumigatus [3], 64 µg/mL (≈ 127 µM) with Cryptococcus neoformans [4] and 128 µg/mL (≈ 253 µM) with Candida albicans [5]. In addition, the inhibition with Candida tropicalis was 75.9%.
